Test results reported in patent US20050203175A1, “Parenteral composition of paracetamol” (priority 2001, published 2005).

Columns and labels:
[1] = cited from earlier work
liver cytochrome P-450 = conditions: in vivo; cited from earlier work
[2] = Solubility in water and organic solvents; format: physicochemical
Source text: Paracetamol is soluble in Methanol, Ethanol, DMF, Ethylene chlorine, Benzyl ethanol and other organic solvents, but none of them can be used alone or in a mixture, because of their toxicity.

[3] = cited from earlier work; remark: listed apart in the source

## CC(=O)Nc1ccc(O)cc1 [Paracetamol]
[1]; intramuscular, blood level similar to that after oral administration
  absorption when intramuscularly administered: well absorbed
[1]; oral administration, does not exist with injectable Paracetamol
  loss of the drug observed after oral administration: 20%
Liver cytochrome P-450
  part oxidized by the liver cytochrome P-450 to a toxic intermediate metabolite: approx. 3%
[2]; Methanol, Ethanol, DMF, Ethylene chlorine, Benzyl ethanol and other organic solvents
  solubility in organic solvents: soluble
[2]; water
  solubility in water: practically insoluble
[3]; glucouronic acid conjugate
  excreted through urines as conjugated derivative of glucouronic acid: 60%
[3]; sulfuric acid conjugate
  excreted through urines as conjugated derivative of sulfuric acid: 35%
[3]; total of sulfuric and glucouronic acid conjugates
  excreted through urines as conjugated derivatives: 95%
[3]; unchanged drug
  excreted unchangeable: 2%
